Patent publication US11179465B2, “Topical compositions comprising a corticosteroid” (PRIMUS PHARMACEUTICALS, INC., priority 2014, dated 2021)

Tests used:
[1] = Plasma concentrations of clobetasol propionate (PK blood samples); format: in vivo, human
Procedure: These investigational products were applied twice daily to all affected areas on the body excluding face, scalp, groin, axillae and other intertriginous areas. The subjects had 20 to 50% BSA treated to achieve maximal use exposure. The subjects were visited Screening, Baseline (Day 1), Day 8, Day 15 and Day 43 (if needed to confirm recovery). Clinical determinations of disease severity was conducted using the Investigator Global Assessment (IGA) for overall severity at each visit. Subjects were tested for HPA axis function using the ACTH stimulation test (i.e., a cosyntropin i.v. or i.m. injection) at the Screening Visit (at least 14 days and no more than 28 days prior to Baseline) and at Day 15. In addition, blood samples for serum dehydroepiandrosterone sulfate (DHEAS) was taken at Screening, on Day 8 and at the time of the ACTH stimulation test on Day 15 (pre-test sample) as a secondary measure of HPA axis suppression. At the time of the screening ACTH stimulation test, a PK blood sample was taken to obtain a baseline value (PK screening sample). On Day 15, subjects were applied the last dose of study product at the clinic up to 60 minutes after a pre-treatment PK blood sample was taken (0 hour-Day 15). PK blood samples was then collected at 1, 3 and 6 hours (±5 minutes) after application of the study product.
Subjects had applied study product to all affected areas except the face, scalp, groin, axillae and other intertriginous areas. The target dose was at least 5 to 7 g per day (1 teaspoon of cream, twice daily, applied at approximately 1 mg/cm2 on 20% BSA—3000 cm2). All baseline affected areas and newly affected areas have been treated until the end of the study even if cleared. The investigator had marked the affected areas (in the source document), updated the marking at each visit, and reminded the subjects where study product was to be applied at each visit using the marking. Study product have been applied directly onto affected areas and rubbed in gently and completely. Study product have been applied after bathing, if applicable.

HPA axis = conditions: topical; cited from earlier work
[2] = Average of Post-Treatment, subjects With HPA Axis Suppression
[3] = Average of Post-Treatment, subjects Without HPA Axis Suppression
[4] = Day 15: 1 Hour, subjects With HPA Axis Suppression
[5] = Day 15: 1 Hour, subjects Without HPA Axis Suppression
[6] = Day 15: 3 Hours, subjects With HPA Axis Suppression
[7] = Day 15: 3 Hours, subjects Without HPA Axis Suppression
[8] = Day 15: 6 Hours, subjects With HPA Axis Suppression
[9] = Day 15: 6 Hours, subjects Without HPA Axis Suppression
[10] = Day 15: Pre-Treatment (0 hour), subjects With HPA Axis Suppression
[11] = Day 15: Pre-Treatment (0 hour), subjects Without HPA Axis Suppression
[12] = Screening, subjects With HPA Axis Suppression (both creams pooled)
[13] = Screening, subjects Without HPA Axis Suppression (both creams pooled)

Plasma Concentration of Clobetasol Propionate, Mean ± SD [1, 2]: 0.217123 ± 0.1537979 ng/mL | Plasma Concentration of Clobetasol Propionate, Median [1, 2]: 0.185565 ng/mL | Plasma Concentration of Clobetasol Propionate, Mean ± SD [1, 3]: 0.071244 ± 0.1060424 ng/mL | Plasma Concentration of Clobetasol Propionate, Median [1, 3]: 0.03174 ng/mL | Plasma Concentration of Clobetasol Propionate, Mean ± SD [1, 4]: 0.210873 ± 0.1962904 ng/mL | Plasma Concentration of Clobetasol Propionate, Median [1, 4]: 0.15588 ng/mL | Plasma Concentration of Clobetasol Propionate, Mean ± SD [1, 5]: 0.081012 ± 0.1512306 ng/mL | Plasma Concentration of Clobetasol Propionate, Median [1, 5]: 0.03173 ng/mL | Plasma Concentration of Clobetasol Propionate, Mean ± SD [1, 6]: 0.200668 ± 0.1260445 ng/mL | Plasma Concentration of Clobetasol Propionate, Median [1, 6]: 0.19545 ng/mL | Plasma Concentration of Clobetasol Propionate, Mean ± SD [1, 7]: 0.067637 ± 0.1039073 ng/mL | Plasma Concentration of Clobetasol Propionate, Median [1, 7]: 0.033185 ng/mL | Plasma Concentration of Clobetasol Propionate, Mean ± SD [1, 8]: 0.205386 ± 0.1474279 ng/mL | Plasma Concentration of Clobetasol Propionate, Median [1, 8]: 0.17805 ng/mL | Plasma Concentration of Clobetasol Propionate, Mean ± SD [1, 9]: 0.065451 ± 0.0915422 ng/mL | Plasma Concentration of Clobetasol Propionate, Median [1, 9]: 0.03626 ng/mL | Plasma Concentration of Clobetasol Propionate, Mean ± SD [1, 10]: 0.195691 ± 0.1507514 ng/mL | Plasma Concentration of Clobetasol Propionate, Median [1, 10]: 0.13649 ng/mL | Plasma Concentration of Clobetasol Propionate, Mean ± SD [1, 11]: 0.055406 ± 0.1003403 ng/mL | Plasma Concentration of Clobetasol Propionate, Median [1, 11]: 0.02623 ng/mL | Plasma Concentration of Clobetasol Propionate, Mean ± SD [1, 12]: 0 ± 0 ng/mL | Plasma Concentration of Clobetasol Propionate, Median [1, 12]: 0 ng/mL | Plasma Concentration of Clobetasol Propionate, Mean ± SD [1, 13]: 0.001282 ± 0.0075844 ng/mL | Plasma Concentration of Clobetasol Propionate, Median [1, 13]: 0 ng/mL | Mean plasma clobetasol levels, subjects with HPA axis suppression relative to those without ([1]; Table 8, both creams pooled): more than 3 times
Compound: CCC(=O)O[C@]1(C(=O)CCl)[C@@H](C)C[C@H]2[C@@H]3CCC4=CC(=O)C=C[C@]4(C)[C@@]3(F)[C@@H](O)C[C@@]21C [Clobetasol Propionate, [17-(2′-chloroacetyl)-9-fluoro-11-hydroxy-10,13,16-trimethyl-3-oxo-6,7,8,11,12,14,15,16-octahydrocyclopenta[a]phenanthren-17-yl] propanoate]
Lowest dose at which the HPA axis is suppressed (HPA axis): 2 grams per day
